Data reported in ChEMBL document CHEMBL1140252, “Deoxyribosyl analogues of methionyl and isoleucyl sulfamate adenylates as inhibitors of methionyl-tRNA and isoleucyl-tRNA synthetases” (Bioorg Med Chem Lett, 2005).

Molecular target: Methionine--tRNA ligase (Escherichia coli K-12, UniProt P00959)
Experiment: Inhibitory concentration against Escherichia coli Met-tRNA synthetase

Methionine--tRNA ligase, sequence (P00959 whole entry): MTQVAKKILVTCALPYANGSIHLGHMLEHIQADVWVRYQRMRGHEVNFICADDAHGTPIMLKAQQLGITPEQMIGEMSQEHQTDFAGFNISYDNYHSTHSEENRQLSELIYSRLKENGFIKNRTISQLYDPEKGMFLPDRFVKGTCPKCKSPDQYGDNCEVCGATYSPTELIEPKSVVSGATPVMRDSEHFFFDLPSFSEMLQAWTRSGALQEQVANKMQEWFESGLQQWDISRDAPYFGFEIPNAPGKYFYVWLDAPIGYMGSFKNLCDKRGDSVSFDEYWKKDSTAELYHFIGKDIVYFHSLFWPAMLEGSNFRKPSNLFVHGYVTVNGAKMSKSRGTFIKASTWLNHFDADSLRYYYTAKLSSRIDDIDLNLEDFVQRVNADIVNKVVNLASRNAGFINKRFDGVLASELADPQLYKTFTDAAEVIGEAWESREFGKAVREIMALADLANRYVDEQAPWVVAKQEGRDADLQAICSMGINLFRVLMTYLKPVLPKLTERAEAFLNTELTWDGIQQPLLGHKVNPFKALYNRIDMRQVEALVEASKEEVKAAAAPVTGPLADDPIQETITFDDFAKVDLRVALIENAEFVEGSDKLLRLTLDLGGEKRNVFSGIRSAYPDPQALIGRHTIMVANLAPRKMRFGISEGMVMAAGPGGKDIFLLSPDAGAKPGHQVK

| IC50 [µM] | Compound |
| --- | --- |
| 110 | CSCC[C@H](N)C(=O)NS(=O)(=O)OC[C@H]1O[C@@H](n2cnc3c(N)ncnc32)C[C@@H]1O |
| 0.383 | CSCC[C@H](N)C(=O)NS(=O)(=O)O[C@@H]1CC[C@H](n2cnc3c(N)nnnc32)O1 |
| 0.083 | CSCC[C@H](N)C(=O)NS(=O)(=O)OC[C@H]1O[C@@H](n2cnc3c(N)ncnc32)[C@H](O)[C@@H]1O |
| 220 | CSCC[C@H](N)C(=O)NS(=O)(=O)OC[C@@H]1C[C@@H](O)[C@H](n2cnc3c(N)ncnc32)O1 |

Molecular target: Isoleucine--tRNA ligase (Escherichia coli K-12, UniProt P00956)
Experiment: Inhibitory concentration against Escherichia coli Ile-tRNA synthetase

Isoleucine--tRNA ligase, sequence (P00956 whole entry): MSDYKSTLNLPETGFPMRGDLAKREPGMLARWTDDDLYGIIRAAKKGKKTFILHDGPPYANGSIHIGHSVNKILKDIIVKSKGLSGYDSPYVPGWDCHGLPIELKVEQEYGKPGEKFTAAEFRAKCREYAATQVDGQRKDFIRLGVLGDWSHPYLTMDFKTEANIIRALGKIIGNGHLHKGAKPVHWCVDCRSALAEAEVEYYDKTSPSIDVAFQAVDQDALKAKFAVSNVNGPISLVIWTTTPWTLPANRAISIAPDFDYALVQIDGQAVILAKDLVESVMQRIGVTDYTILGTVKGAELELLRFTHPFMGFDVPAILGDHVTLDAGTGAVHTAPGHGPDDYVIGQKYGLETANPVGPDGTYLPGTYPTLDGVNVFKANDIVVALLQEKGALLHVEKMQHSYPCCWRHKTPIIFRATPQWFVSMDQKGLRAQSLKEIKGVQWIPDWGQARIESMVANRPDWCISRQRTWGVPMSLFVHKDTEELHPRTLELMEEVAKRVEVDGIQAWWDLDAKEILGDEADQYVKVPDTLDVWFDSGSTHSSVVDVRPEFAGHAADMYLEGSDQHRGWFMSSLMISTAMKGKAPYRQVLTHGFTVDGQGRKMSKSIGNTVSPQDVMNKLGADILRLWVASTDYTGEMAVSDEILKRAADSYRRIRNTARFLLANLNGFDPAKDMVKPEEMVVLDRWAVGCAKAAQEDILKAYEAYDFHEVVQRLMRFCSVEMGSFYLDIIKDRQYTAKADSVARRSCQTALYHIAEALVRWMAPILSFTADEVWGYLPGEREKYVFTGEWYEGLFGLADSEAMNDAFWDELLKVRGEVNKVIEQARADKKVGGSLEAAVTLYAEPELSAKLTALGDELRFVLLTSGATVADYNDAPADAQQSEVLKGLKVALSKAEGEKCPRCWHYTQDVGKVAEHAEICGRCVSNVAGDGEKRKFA

| IC50 [µM] | Compound |
| --- | --- |
| 0.265 | CC[C@H](C)[C@H](N)C(=O)NS(=O)(=O)OC[C@H]1O[C@@H](n2cnc3c(N)ncnc32)[C@H](O)[C@@H]1O |
| 35 | CC[C@H](C)[C@H](N)C(=O)NS(=O)(=O)OC[C@@H]1C[C@@H](O)[C@H](n2cnc3c(N)ncnc32)O1 |
| 6.4 | CC[C@H](C)[C@H](N)C(=O)NS(=O)(=O)OC[C@@H]1CC[C@H](n2cnc3c(N)ncnc32)O1 |
| 280 | CC[C@H](C)[C@H](N)C(=O)NS(=O)(=O)O[C@H]1O[C@@H](n2cnc3c(N)ncnc32)C[C@@H]1O |
